19 molecules from US8952157B2, “Apoptosis-inducing agents for the treatment of cancer and immune and autoimmune diseases” (AbbVie Inc., priority 2008, dated 2015) can be followed below.

Structures are written as SMILES. Read-outs that look alike come from different tables or passages of the source.

What is called Ki is a measure of affinity in units of concentration, obtained from inhibition or displacement.

This assay deals with GST-Bcl-2 (Homo sapiens (Human), UniProt P10415). The experiment in a line: Time Resolved-Fluorescence Resonance Energy Transfer (TR-FRET) Bcl-2 binding assay. In short, it runs like this:
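Ki values derived from TR-FRET displacement of F-Bak peptide from GST-Bcl-2, detected with Tb-labelled anti-GST antibody (ex 340, em 520/495 nm). Compound dilution series started at 50 μM (2× starting concentration); room-temperature incubation 3 hours.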
A general note: In TR-FRET formats the signal depends on donor and acceptor labels being close together.

Setting [1] is: GST-Bcl-2 1 nM, F-Bak peptide probe 100 nM, Tb-anti-GST antibody 1 nM, Ki by Wang's equation.

Sequence of GST-Bcl-2 (P10415 whole entry): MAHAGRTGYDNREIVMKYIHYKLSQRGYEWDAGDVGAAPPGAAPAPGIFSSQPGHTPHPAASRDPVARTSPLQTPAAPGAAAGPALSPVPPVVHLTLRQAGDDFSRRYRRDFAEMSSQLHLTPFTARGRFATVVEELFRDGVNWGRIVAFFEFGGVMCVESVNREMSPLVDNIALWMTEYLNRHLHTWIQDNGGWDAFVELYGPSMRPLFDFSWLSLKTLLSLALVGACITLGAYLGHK

Turning to `CC1(C)CCC(CN2CCN(c3ccc(C(=O)NS(=O)(=O)c4ccc(NC5CCN(CC6CC6)CC5)c([N+](=O)[O-])c4)c(Oc4cccc(Cl)c4)c3)CC2)=C(c2ccc(Cl)cc2)C1` [Example 187, 2-(3-chlorophenoxy)-4-(4-{[2-(4-chlorophenyl)-4,4-dimethylcyclohex-1-en-1-yl]methyl}piperazin-1-yl)-N-[(4-{[1-(cyclopropylmethyl)piperidin-4-yl]amino}-3-nitrophenyl)sulfonyl]benzamide], the Ki under setting [1] amounted to 0.054 nM.

`CC1(C)CCC(CN2CCN(c3ccc(C(=O)NS(=O)(=O)c4ccc(NCCN5CCOCC5)c([N+](=O)[O-])c4)c(Oc4ccccc4F)c3)CC2)=C(c2ccc(Cl)cc2)C1` [Example 126, 4-(4-{[2-(4-chlorophenyl)-4,4-dimethylcyclohex-1-en-1-yl]methyl}piperazin-1-yl)-2-(2-fluorophenoxy)-N-({4-[(2-morpholin-4-ylethyl)amino]-3-nitrophenyl}sulfonyl)benzamide] displayed a Ki under setting [1] of 0.068 nM.

`CN1CCC(Nc2ccc(S(=O)(=O)NC(=O)c3ccc(N4CCN(CC5=C(c6ccc(Cl)cc6)CC(C)(C)CC5)CC4)cc3Oc3cccc(Br)c3)cc2[N+](=O)[O-])CC1` [Example 46, 2-(3-bromophenoxy)-4-(4-((2-(4-chlorophenyl)-4,4-dimethylcyclohex-1-en-1-yl)methyl)piperazin-1-yl)-N-((4-((1-methylpiperidin-4-yl)amino)-3-nitrophenyl)sulfonyl)benzamide]: the affinity under setting [1] corresponds to a Ki of 0.047 nM.

`CC1(C)CCC(CN2CCN(c3ccc(C(=O)NS(=O)(=O)c4ccc(N[C@H]5CC[C@H](N6CCOCC6)CC5)c([N+](=O)[O-])c4)c(Oc4cccc(Cl)c4)c3)CC2)=C(c2ccc(Cl)cc2)C1` [Example 205, Trans-2-(3-chlorophenoxy)-4-(4-{[2-(4-chlorophenyl)-4,4-dimethylcyclohex-1-en-1-yl]methyl}piperazin-1-yl)-N-({4-[(4-morpholin-4-ylcyclohexyl)amino]-3-nitrophenyl}sulfonyl)benzamide] had an inhibition constant Ki of 0.153 nM.

For `CN1CCC(Nc2ccc(S(=O)(=O)NC(=O)c3ccc(N4CCN(CC5=C(c6ccc(Cl)cc6)CC(C)(C)CC5)CC4)cc3Oc3cccc(CO)c3)cc2[N+](=O)[O-])CC1` [Example 167, 4-(4-{[2-(4-chlorophenyl)-4,4-dimethylcyclohex-1-en-1-yl]methyl}piperazin-1-yl)-2-[3-(hydroxymethyl)phenoxy]-N-({4-[(1-methylpiperidin-4-yl)amino]-3-nitrophenyl}sulfonyl)benzamide], under setting [1], the Ki came out at 1.34 nM.

With `CCN(Cc1ccc(Oc2cc(N3CCN(Cc4ccccc4-c4ccc(Cl)cc4)CC3)ccc2C(=O)NS(=O)(=O)c2ccc(NCC3CCOCC3)c([N+](=O)[O-])c2)cc1)C(=O)OC(C)(C)C` [Example 78, tert-butyl 4-(5-(4-((4′-chloro-1,1′-biphenyl-2-yl)methyl)piperazin-1-yl)-2-((((3-nitro-4((tetrahydro-2H-pyran-4-ylmethyl)amino)phenyl)sulfonyl)amino)carbonyl)phenoxy)benzyl(ethyl)carbamate], the Ki under setting [1] is greater than 1200 nM.

`O=C(NS(=O)(=O)c1ccc(N[C@H]2CC[C@H](N3CCOCC3)CC2)c([N+](=O)[O-])c1)c1ccc(N2CCN(CC3=C(c4ccc(Cl)cc4)CCOCC3)CC2)cc1Oc1cc2cc[nH]c2cc1Cl` [Example 315, Trans-2-[(6-chloro-1H-indol-5-yl)oxy]-4-(4-{[5-(4-chlorophenyl)-2,3,6,7-tetrahydrooxepin-4-yl]methyl}piperazin-1-yl)-N-({4-[(4-morpholin-4-ylcyclohexyl)amino]-3-nitrophenyl}sulfonyl)benzamide]: affinity was put at a Ki of 4.55 nM.

For the molecule `CN(C)C(=O)Cc1ccccc1Oc1cc(N2CCN(Cc3ccccc3-c3ccc(Cl)cc3)CC2)ccc1C(=O)NS(=O)(=O)c1ccc(NCC2CCOCC2)c([N+](=O)[O-])c1` [Example 27, 4-(4-((4′-chloro-1,1′-biphenyl-2-yl)methyl)piperazin-1-yl)-2-(2-(2-(dimethylamino)-2-oxoethyl)phenoxy)-N-((3-nitro-4-((tetrahydro-2H-pyran-4-ylmethyl)amino)phenyl)sulfonyl)benzamide], the affinity under setting [1], expressed as Ki, was 2.21 nM.

`O=C(NS(=O)(=O)c1ccc(NCC2CCOCC2)c([N+](=O)[O-])c1)c1ccc(N2CCN(Cc3ccccc3-c3ccc(Cl)cc3)CC2)cc1Oc1ccc(-n2ccnc2)cc1` [Example 76, 4-(4-((4′-chloro-1,1′-biphenyl-2-yl)methyl)piperazin-1-yl)-2-(4-(1H-imidazol-1-yl)phenoxy)-N-((3-nitro-4-((tetrahydro-2H-pyran-4-ylmethyl)amino)phenyl)sulfonyl)benzamide] had an inhibitory constant (Ki) under setting [1] of 240 nM.

Under setting [1], `CC1(C)CC(c2ccc(Cl)cc2)=C(CN2CCN(c3ccc(C(=O)NS(=O)(=O)c4ccc(NCC5CCOCC5)c([N+](=O)[O-])c4)c(Oc4cnc(N)c(Cl)c4)c3)CC2)CO1` [Example 387, 2-[(6-amino-5-chloropyridin-3-yl)oxy]-4-(4-{[4-(4-chlorophenyl)-6,6-dimethyl-5,6-dihydro-2H-pyran-3-yl]methyl}piperazin-1-yl)-N-({3-nitro-4-[(tetrahydro-2H-pyran-4-ylmethyl)amino]phenyl}sulfonyl)benzamide] registered an inhibition constant (Ki) of less than 0.01 nM.

With `CN(C)CCCNc1ccc(S(=O)(=O)NC(=O)c2ccc(N3CCN(Cc4ccccc4-c4ccc(Cl)cc4)CC3)cc2Oc2ccccc2Cl)cc1[N+](=O)[O-]` [Example 11, 4-(4-((4′-chloro-1,1′-biphenyl-2-yl)methyl)piperazin-1-yl)-2-(2-chlorophenoxy)-N-((4-((3-(dimethylamino)propyl)amino)-3-nitrophenyl)sulfonyl)benzamide], the Ki under setting [1] is 0.171 nM.

`CC1(C)CCC(CN2CCN(c3ccc(C(=O)NS(=O)(=O)c4ccc(NC5CCN(C6CC6)CC5)c([N+](=O)[O-])c4)c(Oc4cccc(Cl)c4)c3)CC2)=C(c2ccc(Cl)cc2)C1` [Example 119, 2-(3-chlorophenoxy)-4-(4-{[2-(4-chlorophenyl)-4,4-dimethylcyclohex-1-en-1-yl]methyl}piperazin-1-yl)-N-({4-[(1-cyclopropylpiperidin-4-yl)amino]-3-nitrophenyl}sulfonyl)benzamide] had a Ki under setting [1] of 0.156 nM.

On to `CC1(C)CCC(CN2CCN(c3ccc(C(=O)NS(=O)(=O)c4ccc(NCCCN5CCOCC5)c(S(=O)(=O)C(F)(F)F)c4)c(Oc4cnc(N)c(Cl)c4)c3)CC2)=C(c2ccc(Cl)cc2)C1` [Example 347, 2-[(6-amino-5-chloropyridin-3-yl)oxy]-4-(4-{[2-(4-chlorophenyl)-4,4-dimethylcyclohex-1-en-1-yl]methyl}piperazin-1-yl)-N-({4-[(3-morpholin-4-ylpropyl)amino]-3-[(trifluoromethyl)sulfonyl]phenyl}sulfonyl)benzamide], for which the Ki under setting [1] was 0.377 nM.

As to `CC1(C)CCC(CN2CCN(c3ccc(C(=O)NS(=O)(=O)c4ccc(NC5CCN(C6CCOCC6)CC5)c([N+](=O)[O-])c4)c(Oc4ccc(N)nc4)c3)CC2)=C(c2ccc(Cl)cc2)C1` [Example 261, 2-[(6-aminopyridin-3-yl)oxy]-4-(4-{[2-(4-chlorophenyl)-4,4-dimethylcyclohex-1-en-1-yl]methyl}piperazin-1-yl)-N-({3-nitro-4-[(1-tetrahydro-2H-pyran-4-ylpiperidin-4-yl)amino]phenyl}sulfonyl)benzamide], the affinity under setting [1], expressed as Ki, was 0.186 nM.

For the molecule `CC1(C)CCC(CN2CCN(c3ccc(C(=O)NS(=O)(=O)c4ccc(NC5CCN(CCN6CCOCC6)CC5)c([N+](=O)[O-])c4)c(Oc4cccc(Cl)c4)c3)CC2)=C(c2ccc(Cl)cc2)C1` [Example 190, 2-(3-chlorophenoxy)-4-(4-{[2-(4-chlorophenyl)-4,4-dimethylcyclohex-1-en-1-yl]methyl}piperazin-1-yl)-N-[(4-{[1-(2-morpholin-4-ylethyl)piperidin-4-yl]amino}-3-nitrophenyl)sulfonyl]benzamide], the Ki under setting [1] came out at 0.077 nM.

For `CC1(C)CCC(CN2CCN(c3ccc(C(=O)NS(=O)(=O)c4ccc(NCC5(N)CCOCC5)c([N+](=O)[O-])c4)c(Oc4cc5cc[nH]c5cc4F)c3)CC2)=C(c2ccc(Cl)cc2)C1` [Example 248, N-[(4-{[(4-aminotetrahydro-2H-pyran-4-yl)methyl]amino}-3-nitrophenyl)sulfonyl]-4-(4-{[2-(4-chlorophenyl)-4,4-dimethylcyclohex-1-en-1-yl]methyl}piperazin-1-yl)-2-[(6-fluoro-1H-indol-5-yl)oxy]benzamide], affinity under setting [1] was put at a Ki of 0.051 nM.

For `O=C(NS(=O)(=O)c1ccc(NCC2CCOCC2)c([N+](=O)[O-])c1)c1ccc(N2CCN(Cc3ccccc3-c3ccc(Cl)cc3)CC2)cc1Oc1ccc2[nH]cc(CCCN3CCOCC3)c2c1` [Example 74, 4-(4-((4′-chloro-1,1′-biphenyl-2-yl)methyl)piperazin-1-yl)-2-((3-(3-morpholin-4-ylpropyl)-1H-indol-5-yl)oxy)-N-((3-nitro-4-((tetrahydro-2H-pyran-4-ylmethyl)amino)phenyl)sulfonyl)benzamide], the Ki under setting [1] is 189 nM.

As to `CN1CCC(Nc2ccc(S(=O)(=O)NC(=O)c3ccc(N4CCN(CC5=C(c6ccc(Cl)cc6)CC(C)(C)CC5)CC4)cc3Oc3ccc4nc(N)sc4c3)cc2[N+](=O)[O-])CC1` [Example 229, 2-[(2-amino-1,3-benzothiazol-6-yl)oxy]-4-(4-{[2-(4-chlorophenyl)-4,4-dimethylcyclohex-1-en-1-yl]methyl}piperazin-1-yl)-N-({4-[(1-methylpiperidin-4-yl)amino]-3-nitrophenyl}sulfonyl)benzamide], under setting [1], the Ki is 1.08 nM.

`CN1CCN(Nc2ccc(S(=O)(=O)NC(=O)c3ccc(N4CCN(CC5=C(c6ccc(Cl)cc6)CC(C)(C)OC5)CC4)cc3Oc3cccc(F)c3F)cc2[N+](=O)[O-])CC1` [Example 186, 4-(4-{[4-(4-chlorophenyl)-6,6-dimethyl-5,6-dihydro-2H-pyran-3-yl]methyl}piperazin-1-yl)-2-(2,3-difluorophenoxy)-N-({4-[(4-methylpiperazin-1-yl)amino]-3-nitrophenyl}sulfonyl)benzamide] gave a Ki under setting [1] of 0.035 nM.
